# Laboratory results taken from US8871753B2, “Macrocyclic compounds and their use as kinase inhibitors” (Incyte Corporation, priority 2008, dated 2014).
# Structures can show the parent of a compound that is named as a salt.
# Legend:
# Type in all cases: biochemical
# [1] = biological target: T1, human JAK2 (a.a. 828-1132) (Homo sapiens, UniProt O60674); assay: In vitro JAK kinase assay (HTRF, phosphorylation of a biotinylated peptide), JAK2; conditions: Table D1
# T1 construct: JAK2 (a.a. 828-1132); His tag (N); made in house; host or cells: insect cells (baculovirus)
# Method in brief: (§1)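 Phosphorylation of a biotinylated peptide by the JAK kinase domain, detected by HTRF with Eu-Py20 and SA-APC. ATP was 90 μM for JAK1, 30 μM for JAK2 and 3 μM for JAK3. Reactions ran 1 h at room temperature and were stopped with EDTA, followed by 40 min antibody binding.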
# [2] = biological target: T2, human JAK1 (a.a. 837-1142) (Homo sapiens, UniProt P23458); assay: In vitro JAK kinase assay (HTRF, phosphorylation of a biotinylated peptide), JAK1; conditions: Table D1; read-out: JAK1 IC50
# T2 construct: human JAK1 (a.a. 837-1142); His tag (N); made in house; host or cells: insect cells (baculovirus)
# Method in brief: as §1
# TYK2 = TYK2 (Homo sapiens, UniProt P29597); assay: TYK2 kinase inhibition (Table A1); conditions: Table D1
# [3] = biological target: T3, human JAK3 (a.a. 781-1124) (Homo sapiens, UniProt P52333); assay: In vitro JAK kinase assay (HTRF, phosphorylation of a biotinylated peptide), JAK3; conditions: Table D1
# T3 construct: JAK3 (a.a. 781-1124); His tag (N); made in house; host or cells: insect cells (baculovirus)
# Method in brief: as §1
# [4] = biological target: T4, Recombinant Human Anaplastic Lymphoma Kinase (Homo sapiens, UniProt Q9UM73); assay: ALK HTRF kinase assay; conditions: Table D1; 90 μM ATP
# T4 construct: purchased Invitrogen, Carlsbad, Calif
# Method in brief: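 Readout was HTRF between a Eu-W1024 anti-phosphotyrosine antibody and streptavidin-APC bound to biotinylated peptide phosphorylated by recombinant human ALK. IC50 values came from a four-parameter logistic fit.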
# T2 sequence (P23458 849-1154): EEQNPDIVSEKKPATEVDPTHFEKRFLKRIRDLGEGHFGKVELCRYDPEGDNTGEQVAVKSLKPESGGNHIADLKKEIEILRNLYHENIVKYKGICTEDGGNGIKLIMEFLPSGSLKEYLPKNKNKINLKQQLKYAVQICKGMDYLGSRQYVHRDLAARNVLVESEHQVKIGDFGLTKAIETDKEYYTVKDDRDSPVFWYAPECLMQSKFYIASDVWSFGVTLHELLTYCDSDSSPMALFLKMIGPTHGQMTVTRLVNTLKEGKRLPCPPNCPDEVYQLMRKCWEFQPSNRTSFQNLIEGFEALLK
# T1 sequence (O60674 828-1132): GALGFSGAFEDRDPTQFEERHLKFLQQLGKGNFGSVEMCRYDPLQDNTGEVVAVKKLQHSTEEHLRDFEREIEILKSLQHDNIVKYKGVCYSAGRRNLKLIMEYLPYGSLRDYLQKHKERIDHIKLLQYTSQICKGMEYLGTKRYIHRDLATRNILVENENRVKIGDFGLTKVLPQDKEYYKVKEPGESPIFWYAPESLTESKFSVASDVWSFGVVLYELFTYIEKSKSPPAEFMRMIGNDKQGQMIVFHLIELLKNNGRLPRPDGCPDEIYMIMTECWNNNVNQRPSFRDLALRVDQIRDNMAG
# T3 sequence (P52333 781-1124): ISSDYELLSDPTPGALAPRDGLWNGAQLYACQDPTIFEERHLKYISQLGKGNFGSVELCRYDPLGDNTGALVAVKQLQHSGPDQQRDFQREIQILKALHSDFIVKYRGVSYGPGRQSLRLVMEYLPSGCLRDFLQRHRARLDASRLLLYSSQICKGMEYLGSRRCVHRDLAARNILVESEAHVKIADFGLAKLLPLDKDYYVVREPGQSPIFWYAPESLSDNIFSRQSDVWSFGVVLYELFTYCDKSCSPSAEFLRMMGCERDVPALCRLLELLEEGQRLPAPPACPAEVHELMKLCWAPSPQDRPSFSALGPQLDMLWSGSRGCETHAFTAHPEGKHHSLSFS
# T4 sequence (Q9UM73 19-1620): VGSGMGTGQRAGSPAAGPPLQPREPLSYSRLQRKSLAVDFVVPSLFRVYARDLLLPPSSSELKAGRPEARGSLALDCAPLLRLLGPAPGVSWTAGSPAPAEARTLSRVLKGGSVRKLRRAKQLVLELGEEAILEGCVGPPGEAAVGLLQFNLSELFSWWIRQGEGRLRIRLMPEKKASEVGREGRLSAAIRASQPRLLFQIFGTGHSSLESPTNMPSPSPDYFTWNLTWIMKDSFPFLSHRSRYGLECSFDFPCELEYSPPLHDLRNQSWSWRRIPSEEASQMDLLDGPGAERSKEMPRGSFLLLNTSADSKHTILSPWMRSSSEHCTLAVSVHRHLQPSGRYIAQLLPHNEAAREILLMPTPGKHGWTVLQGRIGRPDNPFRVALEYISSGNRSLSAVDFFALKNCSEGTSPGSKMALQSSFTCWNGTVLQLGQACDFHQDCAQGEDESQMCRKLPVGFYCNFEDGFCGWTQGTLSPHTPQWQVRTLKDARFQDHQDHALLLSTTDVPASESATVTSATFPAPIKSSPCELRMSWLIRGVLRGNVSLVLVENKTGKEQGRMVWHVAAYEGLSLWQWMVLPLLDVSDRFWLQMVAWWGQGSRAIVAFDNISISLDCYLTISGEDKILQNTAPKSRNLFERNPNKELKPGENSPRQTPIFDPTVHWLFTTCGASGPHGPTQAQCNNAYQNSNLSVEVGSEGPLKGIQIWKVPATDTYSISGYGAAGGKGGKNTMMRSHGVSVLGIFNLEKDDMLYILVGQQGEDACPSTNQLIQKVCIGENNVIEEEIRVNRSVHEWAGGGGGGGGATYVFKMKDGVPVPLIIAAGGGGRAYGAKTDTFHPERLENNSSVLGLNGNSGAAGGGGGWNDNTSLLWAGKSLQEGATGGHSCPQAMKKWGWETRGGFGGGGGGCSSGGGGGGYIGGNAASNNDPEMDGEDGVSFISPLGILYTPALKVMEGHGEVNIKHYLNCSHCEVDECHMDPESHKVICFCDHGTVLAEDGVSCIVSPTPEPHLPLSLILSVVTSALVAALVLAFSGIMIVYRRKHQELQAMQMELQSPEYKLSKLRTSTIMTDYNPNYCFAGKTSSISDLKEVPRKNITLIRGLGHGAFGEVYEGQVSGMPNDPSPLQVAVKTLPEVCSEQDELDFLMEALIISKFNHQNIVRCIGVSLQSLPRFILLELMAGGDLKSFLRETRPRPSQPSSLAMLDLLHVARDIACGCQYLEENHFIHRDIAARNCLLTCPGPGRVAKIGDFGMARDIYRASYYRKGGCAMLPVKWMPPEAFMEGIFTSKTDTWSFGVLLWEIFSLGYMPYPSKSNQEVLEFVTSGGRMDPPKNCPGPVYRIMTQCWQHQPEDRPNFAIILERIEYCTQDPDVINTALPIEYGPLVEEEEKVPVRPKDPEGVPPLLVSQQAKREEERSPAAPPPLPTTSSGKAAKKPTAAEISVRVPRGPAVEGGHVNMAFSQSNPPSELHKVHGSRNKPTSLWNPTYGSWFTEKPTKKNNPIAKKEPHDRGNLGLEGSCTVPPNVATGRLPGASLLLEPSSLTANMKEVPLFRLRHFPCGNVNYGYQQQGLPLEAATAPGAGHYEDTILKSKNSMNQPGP
# Chain of TYK2 (P29597 whole entry): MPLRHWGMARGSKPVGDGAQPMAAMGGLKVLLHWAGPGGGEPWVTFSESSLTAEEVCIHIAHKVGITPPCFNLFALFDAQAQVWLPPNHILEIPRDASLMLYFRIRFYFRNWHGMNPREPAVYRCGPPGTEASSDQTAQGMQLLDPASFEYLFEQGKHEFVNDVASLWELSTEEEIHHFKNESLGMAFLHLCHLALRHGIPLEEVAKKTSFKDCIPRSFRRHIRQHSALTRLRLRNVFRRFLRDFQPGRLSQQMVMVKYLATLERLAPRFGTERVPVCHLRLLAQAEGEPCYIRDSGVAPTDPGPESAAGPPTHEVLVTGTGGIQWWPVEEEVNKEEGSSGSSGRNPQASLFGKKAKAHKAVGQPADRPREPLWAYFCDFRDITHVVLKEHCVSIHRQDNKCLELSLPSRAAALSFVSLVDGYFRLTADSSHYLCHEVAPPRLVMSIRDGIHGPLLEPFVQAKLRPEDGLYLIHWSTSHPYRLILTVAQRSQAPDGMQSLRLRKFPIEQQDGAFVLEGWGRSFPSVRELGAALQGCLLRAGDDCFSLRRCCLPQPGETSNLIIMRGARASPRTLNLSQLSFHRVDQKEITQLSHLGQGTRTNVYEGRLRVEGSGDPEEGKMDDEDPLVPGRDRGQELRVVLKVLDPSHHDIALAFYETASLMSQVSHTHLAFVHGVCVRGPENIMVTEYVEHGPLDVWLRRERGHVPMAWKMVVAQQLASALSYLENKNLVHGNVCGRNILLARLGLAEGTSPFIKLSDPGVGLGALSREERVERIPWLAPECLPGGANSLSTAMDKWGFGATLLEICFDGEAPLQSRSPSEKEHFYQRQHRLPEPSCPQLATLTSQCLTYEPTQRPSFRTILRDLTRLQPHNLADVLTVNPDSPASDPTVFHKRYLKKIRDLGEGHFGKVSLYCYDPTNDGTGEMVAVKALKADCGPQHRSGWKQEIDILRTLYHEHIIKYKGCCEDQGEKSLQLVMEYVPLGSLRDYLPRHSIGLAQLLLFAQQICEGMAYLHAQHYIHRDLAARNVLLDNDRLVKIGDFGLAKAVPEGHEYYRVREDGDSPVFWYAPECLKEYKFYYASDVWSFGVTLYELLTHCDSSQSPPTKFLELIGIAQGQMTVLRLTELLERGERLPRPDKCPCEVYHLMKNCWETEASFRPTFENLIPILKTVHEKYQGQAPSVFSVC
Compound,IC50 [1] [nM],IC50 [2] [nM],IC50 (TYK2) [nM],IC50 [3] [nM],IC50 [4] [nM]
"Cc1n[nH]c(C)c1-c1cc2cc(c1)Nc1ncc(Cl)c(n1)Nc1cccc(c1)OCC2 [Example D30, 6-Chloro-19-(3,5-dimethyl-1H-pyrazol-4-yl)-14-oxa-2,4,8,23-tetraazatetracyclo[15.3.1.1(3,7).1(9,13)]tricosa-1(21),3(23),4,6,9(22),10,12,17,19-nonaene bis(trifluoroacetate)]",0.6,4.1,15,49,157
"Clc1cnc2nc1Nc1cccc(c1)OCCc1cc(cc(-c3cnc(N4CCNCC4)nc3)c1)N2 [Example D31, 6-Chloro-19-(2-piperazin-1-ylpyrimidin-5-yl)-14-oxa-2,4,8,23-tetraazatetracyclo[15.3.1.1(3,7).1(9,13)]tricosa-1(21),3(23),4,6,9(22),10,12,17,19-nonaene tris(trifluoroacetate)]",0.2,0.9,2,6.7,104
"Clc1cnc2nc1Nc1cccc(c1)CSCCc1cccc(c1)N2 [Example D32, 6-Chloro-15-thia-2,4,8,24-tetraazatetracyclo[16.3.1.1(3,7).1(9,13)]tetracosa-1(22),3(24),4,6,9(23),10,12,18,20-nonaene trifluoroacetate]",43,41,45,84,> 1000
"Clc1cnc2nc1Nc1cccc(c1)OCCc1cc(cc(-c3ccc(N4CCNCC4)nc3)c1)N2 [Example D33, 6-Chloro-19-(6-piperazin-1-ylpyridin-3-yl)-14-oxa-2,4,8,23-tetraazatetracyclo[15.3.1.1(3,7).1(9,13)]tricosa-1(21),3(23),4,6,9(22),10,12,17,19-nonaene tris(trifluoroacetate)]",0.7,1.8,4,12,108
"Clc1cnc2nc1Nc1cccc(c1)CCSCc1cccc(c1)N2 [Example D34, 6-Chloro-16-thia-2,4,8,24-tetraazatetracyclo[16.3.1.1(3,7).1(9,13)]tetracosa-1(22),3(24),4,6,9(23),10,12,18,20-nonaene trifluoroacetate]",91,123,211,136,> 1000
"CC(=O)N1CCN(c2cc(-c3cc4cc(c3)Nc3ncc(Cl)c(n3)Nc3cccc(c3)OCC4)ccn2)CC1 [Example D35, 19-[2-(4-Acetylpiperazin-1-yl)pyridin-4-yl]-6-chloro-14-oxa-2,4,8,23-tetraazatetracyclo[15.3.1.1(3,7).1(9,13)]tricosa-1(21),3(23),4,6,9(22),10,12,17,19-nonaene bis(trifluoroacetate)]",0.4,0.7,4.3,7.7,150
"CS(=O)(=O)N1CCN(c2cc(-c3cc4cc(c3)Nc3ncc(Cl)c(n3)Nc3cccc(c3)OCC4)ccn2)CC1 [Example D36, 6-Chloro-19-{2-[4-(methylsulfonyl)piperazin-1-yl]pyridin-4-yl}-14-oxa-2,4,8,23-tetraazatetracyclo[15.3.1.1(3,7).1(9,13)]tricosa-1(21),3(23),4,6,9(22),10,12,17,19-nonaene bis(trifluoroacetate)]",0.4,1.3,4.9,4.9,225
"CC(=O)N1CCN(c2ccc(-c3cc4cc(c3)Nc3ncc(Cl)c(n3)Nc3cccc(c3)OCC4)cn2)CC1 [Example D37, 19-[6-(4-Acetylpiperazin-1-yl)pyridin-3-yl]-6-chloro-14-oxa-2,4,8,23-tetraazatetracyclo[15.3.1.1(3,7).1(9,13)]tricosa-1(21),3(23),4,6,9(22),10,12,17,19-nonaene tris(trifluoroacetate)]",0.7,0.9,1.4,9.9,248
"CS(=O)(=O)N1CCN(c2ccc(-c3cc4cc(c3)Nc3ncc(Cl)c(n3)Nc3cccc(c3)OCC4)cn2)CC1 [Example D38, 6-Chloro-19-{6-[4-(methylsulfonyl)piperazin-1-yl]pyridin-3-yl}-14-oxa-2,4,8,23-tetraazatetracyclo[15.3.1.1(3,7).1(9,13)]tricosa-1(21),3(23),4,6,9(22),10,12,17,19-nonaene bis(trifluoroacetate)]",0.9,1.1,4,19,442
"NC(=O)N1CCN(c2cc(-c3cc4cc(c3)Nc3ncc(Cl)c(n3)Nc3cccc(c3)OCC4)ccn2)CC1 [Example D39, 4-{4-[6-Chloro-14-oxa-2,4,8,23-tetraazatetracyclo[15.3.1.1(3,7).1(9,13)]tricosa-1(21),3(23),4,6,9(22),10,12,17,19-nonaen-19-yl]pyridin-2-yl}piperazine-1-carboxamide bis(trifluoroacetate)]",0.5,0.5,1.8,6.4,91

# Now from value to compound:
IC50 [1] [nM],IC50 [2] [nM],IC50 (TYK2) [nM],IC50 [3] [nM],IC50 [4] [nM],Compound
0.7,0.9,2.1,7.2,182,"NC(=O)N1CCN(c2ccc(-c3cc4cc(c3)Nc3ncc(Cl)c(n3)Nc3cccc(c3)OCC4)cn2)CC1 [Example D40, 4-{5-[6-Chloro-14-oxa-2,4,8,23-tetraazatetracyclo[15.3.1.1(3,7).1(9,13)]tricosa-1(21),3(23),4,6,9(22),10,12,17,19-nonaen-19-yl]pyridin-2-yl}piperazine-1-carboxamide bis(trifluoroacetate)]"
0.4,3.1,6.2,17,280,"CC(C)(C)NC(=O)N1CCN(c2cc(-c3cc4cc(c3)Nc3ncc(Cl)c(n3)Nc3cccc(c3)OCC4)ccn2)CC1 [Example D41, N-(tert-Butyl)-4-{4-[6-chloro-14-oxa-2,4,8,23-tetraazatetracyclo[15.3.1.1(3,7).1(9,13)]tricosa-1(21),3(23),4,6,9(22),10,12,17,19-nonaen-19-yl]pyridin-2-yl}piperazine-1-carboxamide bis(trifluoroacetate)]"
2.1,2.2,4,20,730,"O=C(Nc1ccccc1)N1CCN(c2ccc(-c3cc4cc(c3)Nc3ncc(Cl)c(n3)Nc3cccc(c3)OCC4)cn2)CC1 [Example D42, 4-{5-[6-Chloro-14-oxa-2,4,8,23-tetraazatetracyclo[15.3.1.1(3,7).1(9,13)]tricosa-1(21),3(23),4,6,9(22),10,12,17,19-nonaen-19-yl]pyridin-2-yl}-N-phenylpiperazine-1-carboxamide bis(trifluoroacetate)]"
5.3,2.9,37,66,390,"COC(=O)c1cc2cc(c1)OCCSc1cccc(c1)Nc1nc(ncc1Cl)N2 [Example D43, Methyl 6-chloro-17-oxa-14-thia-2,4,8,24-tetraazatetracyclo[16.3.1.1(3,7).1(9,13)]tetracosa-1(22),3(24),4,6,9(23),10,12,18,20-nonaene-20-carboxylate trifluoroacetate]"
1.5,2.6,15,18,480,"O=C(Nc1ccccc1)N1CCN(c2cc(-c3cc4cc(c3)Nc3ncc(Cl)c(n3)Nc3cccc(c3)OCC4)ccn2)CC1 [Example D44, 4-{4-[6-Chloro-14-oxa-2,4,8,23-tetraazatetracyclo[15.3.1.1(3,7).1(9,13)]tricosa-1(21),3(23),4,6,9(22),10,12,17,19-nonaen-19-yl]pyridin-2-yl}-N-phenylpiperazine-1-carboxamide bis(trifluoroacetate)]"
3,8.1,13,36,340,"O=C(NCc1ccccc1)N1CCN(c2cc(-c3cc4cc(c3)Nc3ncc(Cl)c(n3)Nc3cccc(c3)OCC4)ccn2)CC1 [Example D45, N-Benzyl-4-{4-[6-chloro-14-oxa-2,4,8,23-tetraazatetracyclo[15.3.1.1(3,7).1(9,13)]tricosa-1(21),3(23),4,6,9(22),10,12,17,19-nonaen-19-yl]pyridin-2-yl}piperazine-1-carboxamide bis(trifluoroacetate)]"
0.9,4.7,8.2,21,390,"O=C(NC1CCCC1)N1CCN(c2cc(-c3cc4cc(c3)Nc3ncc(Cl)c(n3)Nc3cccc(c3)OCC4)ccn2)CC1 [Example D46, 4-{4-[6-Chloro-14-oxa-2,4,8,23-tetraazatetracyclo[15.3.1.1(3,7).1(9,13)]tricosa-1(21),3(23),4,6,9(22),10,12,17,19-nonaen-19-yl]pyridin-2-yl}-N-cyclopentylpiperazine-1-carboxamide bis(trifluoroacetate)]"
2.1,4.9,8.3,27,> 1000,"O=C(NCc1ccccc1)N1CCN(c2ccc(-c3cc4cc(c3)Nc3ncc(Cl)c(n3)Nc3cccc(c3)OCC4)cn2)CC1 [Example D48, bis(trifluoroacetate)]"
